Laboratory results taken from US20220220450A1, “FABRICATION OF A BIOMIMETIC PLATFORM SYSTEM AND METHODS OF USE” (Cornell University Center for Technology Licensing, priority 2017, published 2022).

Key:
[1] = tested on: MDA-MB231 cancer cells; assay: Doxorubicin response of cancer cells in 3D-collagen only biomimetic platform system; format: cell-based, human; settings: 0.6% (w/v) collagen, 200,000 MDA-MB231 cells labelled with mCherry; 1-10 μM doxorubicin; FIG. 19B
Method: Images were analyzed by confocal microscopy.

[2] = tested on: MDA-MB468 cancer cells; assay: Doxorubicin response in 3D-breast component versus 3D-collagen only biomimetic platform system; format: cell-based, human; settings: doxorubicin 0-10 μM, FIG. 20C
[3] = tested on: HS578T cancer cells; assay: as above; format: cell-based, human; settings: doxorubicin 0-10 μM, FIG. 21A-21D
[4] = tested on: adipocytes; assay: Doxorubicin permeability of 3D-breast component biomimetic platform without cancer cells (BM only); format: cell-based, human; settings: 0.6% (w/v) collagen, 15% v/v adipocytes, stromal cells, breast organoids, no cancer cells; increasing doxorubicin concentrations 0-10 μM; FIG. 19C
[5] = tested on: MDA-MB231 cancer cells; assay: Doxorubicin response and uptake in 3D-breast component biomimetic platform system with cancer cells
Source text: Lentivirus transfected human cell lines were selected for use in the biomimetic platform systems disclosed herein. Color selection was randomly assigned to ensure proper differentiation between cell types under fluorescent and confocal microscopy. […] Cancer cell lines, MDA-MB231, MDA-MB468, and HS-578T were transfected with mCherry lentivirus.
Surgical specimens were obtained. In a sterile biosafety hood, breast specimens were homogeneously minced. Excess lipid was carefully removed from tissue by suction, and minced tissue was mixed on a 1:1 ratio with complete Ham's media containing 1 mg/mL of collagenase Type I and 0.01 mg/mL hyaluronidase (for adipocytes and Adipose derived stem cell (ASC)-containing stromal vascular fraction (SVF) isolation) or 1 mg/mL of collagenase type IA and 0.01 mg/mL hyaluronidase (for isolation of breast organoids).
The total amount of 1×M199 media needed for collagen dilution during the neutralization process was reduced by 2504, to allow for the volume needed for reconstitution of cellular components that were added to neutralize collagen. The Collagen platform without breast components was fully diluted by adding 250 microliters of media with desired number of vascular cells (e.g., pericytes), while the biomimetic platform with breast components was diluted by adding 250 μL of MEGM media containing extracted organoids, SVF containing ASCs, and cancer cells. Components were mixed homogeneously into the neutralized collagen, and mature adipocytes were added to the biomimetic platform containing breast stroma at 15% v/v (v/v refers to the volume of the adipocytes+SVF over the total volume of the biocompatible substrate present in the biomimetic platform system described herein).
Biomimetic constructs were fixed in formaldehyde for 30 minutes followed by 3 consecutive 5-minute Phosphate Buffered Saline (PBS) washes. […] Images were analyzed by confocal microscopy. […]
Confocal images for doxorubicin response were analyzed using Imaris™ for visualization of 3D image volume. […]

[6] = 0.6% (w/v) collagen, 15% v/v adipocytes, stromal cells, breast organoids, 200,000 MDA-MB231 cells, 1-10 μM doxorubicin, FIG. 19A

Compound: COc1cccc2c1C(=O)c1c(O)c3c(c(O)c1C2=O)C[C@@](O)(C(=O)CO)C[C@@H]3O[C@H]1C[C@H](N)[C@H](O)[C@H](C)O1 [doxorubicin]
- absolute number of cells (mCherry and DAPI signals) [1]: decrease in the absolute number of cells
- sensitivity of cancer cells to doxorubicin, 3D-breast component versus 3D-collagen only platform [2]: decreased sensitivity
- sensitivity of cancer cells to doxorubicin, 3D-breast component versus 3D-collagen only platform [3]: decreased sensitivity
- permeability of the biomimetic platform and adipocytes to doxorubicin (signal) [4]: increased signal
- absolute number of cells (mCherry and DAPI signals) [5, 6]: decrease in the absolute number of cells
- doxorubicin uptake (intrinsic fluorescence signal) [5, 6]: uptake was increased
- sensitivity of cancer cells to doxorubicin, 3D-breast component versus 3D-collagen only platform ([5]; MDA-MB231, doxorubicin 0-10 μM, FIG. 20A-20B): decreased sensitivity
